Assay results reported in article PMC9321231.
Like-named read-outs stand apart in the source and are kept apart here.

Assays:
[1] = tested on: lung carcinoma (A549) cells; test: Antiproliferative assay (MTT or SRB), A549; type: cell-based, human; conditions: for IC50: A-549, read-out: IC50 ± SD, antiproliferative activity; for Calculated Selectivity Index SI: IC50 Balb/3T3 / IC50 A-549
Description: (§1) Cell preparation, an in vitro antiproliferative assay, and MTT and SRB cytotoxic tests were performed according to the literature.

[2] = tested on: human biphenotypic B myelomonocytic leukemia (MV4-11) cells; test: Antiproliferative assay (MTT or SRB), MV4-11; type: cell-based; conditions: for IC50: MV-4-11, read-out: IC50 ± SD, antiproliferative activity; for Calculated Selectivity Index SI: IC50 Balb/3T3 / IC50 MV-4-11
Description: as §1

[3] = molecular target: T1, human neutrophil elastase (HNE) (Homo sapiens, UniProt P08246); test: Kinetic analysis of the inhibition of human neutrophil elastase (Lineweaver-Burk, Dixon, secondary plots); type: biochemical; conditions: for Inhibition Type: Lineweaver-Burk and Dixon analysis; for Kis (enzyme-substrate-inhibitor dissociation constant): secondary plot of intercept versus inhibitor concentration; for Ki: secondary plot of slope versus inhibitor concentration, read-out: Ki (enzyme-inhibitor dissociation constant)
T1 sequence (P08246 30-267): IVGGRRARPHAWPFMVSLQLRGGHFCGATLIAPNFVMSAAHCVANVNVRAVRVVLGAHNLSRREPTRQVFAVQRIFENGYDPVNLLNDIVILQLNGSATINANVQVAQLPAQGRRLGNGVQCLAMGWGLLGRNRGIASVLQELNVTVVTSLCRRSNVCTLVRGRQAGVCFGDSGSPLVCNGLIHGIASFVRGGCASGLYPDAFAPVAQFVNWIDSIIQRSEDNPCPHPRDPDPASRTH
Description: Next, kinetic analysis of the mechanism of inhibition of human neutrophil elastase by thiazoles 3a–3j was determined using double-reciprocal plots of Lineweaver-Burk plots and Dixon analysis.
The first model is one in which the inhibitor binds better to the free enzyme (competitive mechanism), while the second model is one in which the inhibitor binds better to the enzyme-substrate complex (non-competitive mechanism). Next the secondary plots of slope versus concentration of test compounds were plotted to determine the enzyme-inhibitor dissociation constants Ki, and similarly as was used to determine enzyme-substrate-inhibitor dissociation constants Kis, the secondary plots of intercept versus concentration of tested compounds were plotted.
Kinetic studies were conducted in the presence of different concentrations of substrate (5, 25, 50 and 100 µM) and test compounds (in the range of 0–500 nM). The reaction conditions were the same as in the HNE inhibition assay and the reaction was monitored for 10 min at 25 °C with the same Ex an Em wavelengths. By Lineweaver–Burk plots, kinetic values such as the Michaelis–Menten constants and maximum velocity were determined. Next, two inhibition constants for inhibitor binding with free enzyme or enzyme–substrate complex (Ki and Kis) were obtained by plotting the secondary plot of the slopes of the determined straight lines or vertical intercept (1/Vmax) versus inhibitor concentration.

[4] = tested on: normal mouse fibroblast (BALB/3T3) cells; test: Antiproliferative assay (MTT or SRB), normal fibroblasts BALB/3T3; type: cell-based; conditions: Balb/3T3 normal mouse fibroblasts; read-out: IC50 ± SD, antiproliferative activity
Description: Anticancer drugs are toxic to cancer cells, but also show some toxicity to healthy cells. […] The selectivity indexes for thiazoles 3a–3j against MV4-11 and A-549 cells were in general much higher than for MDA-MB-231 and UMUC-3 cells.
as §1

[5] = tested on: human breast adenocarcinoma (MDA-MB-231) cells; test: Antiproliferative assay (MTT or SRB), MDA-MB-231; type: cell-based; conditions: for IC50: MDA-MB-231, read-out: IC50 ± SD, antiproliferative activity; for Calculated Selectivity Index SI: IC50 Balb/3T3 / IC50 MDA-MB-231
Description: as §1

[6] = molecular target: T1, human neutrophil elastase (HNE); test: Human neutrophil elastase inhibition assay (spectrofluorimetric, MeOSuc-AAPV-AMC substrate)
Description: The inhibition of human neutrophil elastase was carried out by the spectrofluorimetric method using N-methoxysuccinyl-Ala-Ala-Pro-Val-7-amido-4-methylcoumarin (MeOSuc-AAPV-AMC) as substrate.

[7] = tested on: urinary bladder carcinoma (UMUC-3) cells; test: Antiproliferative assay (MTT or SRB), UMUC-3; type: cell-based, human; conditions: for IC50: UMUC-3, read-out: IC50 ± SD, antiproliferative activity; for Calculated Selectivity Index SI: IC50 Balb/3T3 / IC50 UMUC-3
Description: as §1

CCC1(CC)C(=O)N(c2ccc(-c3csc(Nc4cc(C)cc(C)c4)n3)cc2)C1=O [3f, 1-(4-(2-(3,5-Dimethylphenylamino)thiazol-4-yl)phenyl)-3,3-diethylazetidine-2,4-dione]
IC50 ([1]; Homo sapiens, A549): 7.28 ± 1.07 µM | Calculated Selectivity Index SI [1]: 3.27 | IC50 ([2]; Homo sapiens, MV4-11): 5.89 ± 1.67 µM | Calculated Selectivity Index SI [2]: 4.04 | Inhibition Type [3]: mixed type I inhibition | Kis (enzyme-substrate-inhibitor dissociation constant) [3]: 426.00 nM | Ki [3]: 0.144 µM | IC50 [4]: 23.8 ± 4.53 µM | IC50 ([5]; Homo sapiens): 12.5 ± 1.79 µM | Calculated Selectivity Index SI [5]: 1.90 | IC50 [6]: 0.244 ± 0.0194 µM | melting point: 140 to 143 °C | IC50 ([7]; Homo sapiens, UMUC3): 19.7 ± 5.49 µM | Calculated Selectivity Index SI [7]: 1.21

CCC1(CC)C(=O)N(c2ccc(-c3csc(Nc4ccc(C(F)(F)F)cc4)n3)cc2)C1=O [3i, 3,3-Diethyl-1-(4-(2-(4-(trifluoromethyl)phenylamino)thiazol-4-yl)phenyl)-azetidine-2,4-dione]
IC50 ([1]; Homo sapiens, A549): 6.42 ± 0.72 µM | Calculated Selectivity Index SI [1]: 1.58 | IC50 ([2]; Homo sapiens, MV4-11): 5.47 ± 1.52 µM | Calculated Selectivity Index SI [2]: 1.85 | Inhibition Type [3]: mixed | Kis (enzyme-substrate-inhibitor dissociation constant) [3]: 425.00 nM | Ki [3]: 0.597 µM | IC50 [4]: 10.1 ± 0.87 µM | IC50 ([5]; Homo sapiens): 11.7 ± 3.7 µM | Calculated Selectivity Index SI [5]: 0.87 | IC50 [6]: 0.168 ± 0.0181 µM | melting point: 170 to 172 °C | IC50 ([7]; Homo sapiens, UMUC3): 10.7 ± 3.05 µM | Calculated Selectivity Index SI [7]: 0.95

N.N.[Cl][Pt][Cl] [cisplatin, reference compound]
IC50 [1]: 4.09 ± 1 µM | IC50 [2]: 1.33 ± 0.17 µM | IC50 [4]: 8.04 ± 3.16 µM | IC50 [5]: 19.4 ± 6.8 µM | IC50 [7]: 1.73 ± 0.17 µM

CCC1(CC)C(=O)N(c2ccc(-c3csc(Nc4c(F)c(F)c(F)c(F)c4F)n3)cc2)C1=O [3d, 3,3-Diethyl-1-(4-(2-(perfluorophenylamino)thiazol-4-yl)phenyl)azetidine-2,4-dione]
IC50 ([1]; Homo sapiens, A549): 15.3 ± 4.98 µM | Calculated Selectivity Index SI [1]: 3.04 | IC50 ([2]; Homo sapiens, MV4-11): 5.4 ± 2.06 µM | Calculated Selectivity Index SI [2]: 8.61 | Inhibition Type [3]: mixed | Kis (enzyme-substrate-inhibitor dissociation constant) [3]: 49.33 nM | Ki [3]: 0.138 µM | IC50 [4]: 46.5 ± 4.99 µM | IC50 ([5]; Homo sapiens): 72.1 ± 26 µM | Calculated Selectivity Index SI [5]: 0.64 | IC50 [6]: 0.11 ± 0.00441 µM | melting point: 162 to 164 °C | IC50 ([7]; Homo sapiens, UMUC3): 62.7 ± 9.98 µM | Calculated Selectivity Index SI [7]: 0.74

CCC1(CC)C(=O)N(c2ccc(-c3csc(Nc4ccc(Cl)cc4)n3)cc2)C1=O [3a, 1-(4-(2-(4-Chlorophenylamino)thiazol-4-yl)phenyl)-3,3-diethylazetidine-2,4-dione]
IC50 ([1]; Homo sapiens, A549): 7.01 ± 0.47 µM | Calculated Selectivity Index SI [1]: 1.55 | IC50 ([2]; Homo sapiens, MV4-11): 7.15 ± 0.94 µM | Calculated Selectivity Index SI [2]: 1.52 | Inhibition Type [3]: mixed | Kis (enzyme-substrate-inhibitor dissociation constant) [3]: 426.00 nM | Ki [3]: 0.59 µM | IC50 [4]: 10.9 ± 1.18 µM | IC50 ([5]; Homo sapiens): 9.86 ± 0.94 µM | Calculated Selectivity Index SI [5]: 1.10 | IC50 [6]: 0.227 ± 0.0351 µM | melting point: 164 to 166 °C | IC50 ([7]; Homo sapiens, UMUC3): 10.7 ± 1.41 µM | Calculated Selectivity Index SI [7]: 1.02

CCC1(CC)C(=O)N(c2ccc(-c3csc(Nc4c(Cl)cc(Cl)cc4Cl)n3)cc2)C1=O [3j, 3,3-Diethyl-1-(4-(2-(2,4,6-trichlorophenylamino)thiazol-4-yl)phenyl)azetidine-2,4-dione]
IC50 ([1]; Homo sapiens, A549): 6.21 ± 0.73 µM | Calculated Selectivity Index SI [1]: 5.55 | IC50 ([2]; Homo sapiens, MV4-11): 5.11 ± 1.42 µM | Calculated Selectivity Index SI [2]: 6.75 | Inhibition Type [3]: mixed | Kis (enzyme-substrate-inhibitor dissociation constant) [3]: 38.00 nM | Ki [3]: 0.209 µM | IC50 [4]: 34.5 ± 22.7 µM | IC50 ([5]; Homo sapiens): 14.3 ± 3.45 µM | Calculated Selectivity Index SI [5]: 2.41 | IC50 [6]: 0.249 ± 0.0328 µM | melting point: 78 to 80 °C | IC50 ([7]; Homo sapiens, UMUC3): 25.3 ± 9.94 µM | Calculated Selectivity Index SI [7]: 1.36

CCC1(CC)C(=O)N(c2ccc(-c3csc(Nc4ccc(F)cc4)n3)cc2)C1=O [3b, 3,3-Diethyl-1-(4-(2-(4-fluorophenylamino)thiazol-4-yl)phenyl)azetidine-2,4-dione]
IC50 ([1]; Homo sapiens, A549): 7.31 ± 0.46 µM | Calculated Selectivity Index SI [1]: 1.57 | IC50 ([2]; Homo sapiens, MV4-11): 5.92 ± 1.71 µM | Calculated Selectivity Index SI [2]: 1.94 | Inhibition Type [3]: mixed | Kis (enzyme-substrate-inhibitor dissociation constant) [3]: 65.50 nM | Ki [3]: 0.0722 µM | IC50 [4]: 11.5 ± 1.47 µM | IC50 ([5]; Homo sapiens): 9.34 ± 1.12 µM | Calculated Selectivity Index SI [5]: 1.23 | IC50 [6]: 0.176 ± 0.0135 µM | melting point: 155 to 157 °C | IC50 ([7]; Homo sapiens, UMUC3): 9.07 ± 0.49 µM | Calculated Selectivity Index SI [7]: 1.27

CCC1(CC)C(=O)N(c2ccc(-c3csc(Nc4cccc5ccccc45)n3)cc2)C1=O [3h, 3,3-Diethyl-1-(4-(2-(naphthalen-1-ylamino)thiazol-4-yl)phenyl)azetidine-2,4-dione]
IC50 ([1]; Homo sapiens, A549): 9.2 ± 1.36 µM | Calculated Selectivity Index SI [1]: 2.44 | IC50 ([2]; Homo sapiens, MV4-11): 6.64 ± 1.59 µM | Calculated Selectivity Index SI [2]: 3.38 | Inhibition Type [3]: mixed type I inhibition | Kis (enzyme-substrate-inhibitor dissociation constant) [3]: 46.50 nM | Ki [3]: 0.0339 µM | IC50 [4]: 22.4 ± 8.62 µM | IC50 ([5]; Homo sapiens): 14.6 ± 3.17 µM | Calculated Selectivity Index SI [5]: 1.53 | IC50 [6]: 0.0446 ± 0.00604 µM | melting point: 69 to 71 °C | IC50 ([7]; Homo sapiens, UMUC3): 13.3 ± 1.81 µM | Calculated Selectivity Index SI [7]: 1.69

CCC1(CC)C(=O)N(c2ccc(-c3csc(Nc4ccc5[nH]ncc5c4)n3)cc2)C1=O [3g, 1-(4-(2-(1H-Indazol-5-ylamino)thiazol-4-yl)phenyl)-3,3-diethylazetidine-2,4-dione]
IC50 ([1]; Homo sapiens, A549): 5.59 ± 0.16 µM | Calculated Selectivity Index SI [1]: 1.08 | IC50 ([2]; Homo sapiens, MV4-11): 5.38 ± 0.46 µM | Calculated Selectivity Index SI [2]: 1.12 | Inhibition Type [3]: mixed type I inhibition | Kis (enzyme-substrate-inhibitor dissociation constant) [3]: 171.25 nM | Ki [3]: 0.137 µM | IC50 [4]: 6.03 ± 0.46 µM | IC50 ([5]; Homo sapiens): 6.19 ± 0.42 µM | Calculated Selectivity Index SI [5]: 0.97 | IC50 [6]: 0.312 ± 0.00576 µM | melting point: 186 to 188 °C | IC50 ([7]; Homo sapiens, UMUC3): 7.89 ± 0.23 µM | Calculated Selectivity Index SI [7]: 0.76
